From patent publication US11730720B2, “ALK5 inhibitors” (THERAVANCE BIOPHARMA R&D IP, LLC, priority 2018, dated 2023)

Key:
[1] = target: T1, recombinant human ALK5 (TGF-βR1) protein (Homo sapiens, UniProt P36897); assay: Biochemical ALK5 (TGF-βR1) assay to measure pKi (LANCE Ultra ULight kinase assay); settings: apparent pKi, converted from pIC50 using the Cheng-Prusoff equation
T1 construct: purchased Life Technologies PR9075A
T1 sequence (P36897 34-503): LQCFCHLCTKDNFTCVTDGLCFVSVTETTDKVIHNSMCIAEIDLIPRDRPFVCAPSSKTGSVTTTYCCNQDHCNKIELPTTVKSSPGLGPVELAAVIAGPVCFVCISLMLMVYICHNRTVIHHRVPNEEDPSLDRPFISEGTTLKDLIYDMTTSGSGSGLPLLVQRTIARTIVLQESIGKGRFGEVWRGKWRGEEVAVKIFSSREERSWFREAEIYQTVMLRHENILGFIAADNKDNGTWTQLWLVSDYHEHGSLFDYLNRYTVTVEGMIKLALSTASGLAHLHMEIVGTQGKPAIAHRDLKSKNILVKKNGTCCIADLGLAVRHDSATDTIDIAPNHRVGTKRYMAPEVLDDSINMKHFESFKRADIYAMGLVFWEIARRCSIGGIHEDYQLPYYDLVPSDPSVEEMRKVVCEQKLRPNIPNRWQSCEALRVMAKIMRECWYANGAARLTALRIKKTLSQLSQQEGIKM
Summary of the method: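 TR-FRET kinase format: compound dose range 10 μM–25 pM equilibrated 60 min with human ALK5 and ULight-labelled topoisomerase 2α peptide in HEPES/MgCl2 buffer pH 7.5 with DTT. Reaction started with ATP (125 μM stock, 5× final), 60 min at 37° C, stopped with EDTA/Eu-anti-phospho antibody; pKi derived from pIC50 via Cheng-Prusoff.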

[2] = test system: TGF-β-stimulated SMAD3 phosphorylation in BEAS-2B cells; assay: Cellular ALK5 potency assay, inhibition of TGF-β stimulated pSMAD3 formation in BEAS-2B cells; assay type: cell-based; settings: Homo sapiens, inhibition of TGF-β (10 ng/mL) stimulated pSMAD3 formation, 1 hour compound incubation, read-out: BEAS2B pIC50 (converted)
Summary of the method: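 Phospho-SMAD3 was quantified by AlphaLISA in lysates of human lung epithelial BEAS-2B cells. Compound was added 1 h (37 °C, HEPES/BSA-supplemented HBSS) before a 30 min challenge with 10 ng/mL TGF-β. Values are pIC50 relative to stimulated cells without compound.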

SMILES | Ki [1] [nM] | IC50 [2] [nM]
COC(=O)N1CCc2nnc(-c3cnc4ccc(-c5c[nH]nc5-c5cc(Cl)ccc5F)nc4c3)cc2C1 [Compound 1-126, methyl 3-[6-[3-(5-chloro-2-fluoro-phenyl)-1H-pyrazol-4-yl]-1,5-naphthyridin-3-yl]-7,8-dihydro-5H-pyrido[4,3-c]pyridazine-6-carboxylate] | 0.0398 to 0.316 | 25.1 to 158
CC(C)N1CCN(CCNc2cnc3ccc(-c4c(-c5cc(Cl)ccc5F)nc5ccccn45)cc3c2)CC1 [Compound 19-6, 6-(2-(5-chloro-2-fluorophenyl)imidazo[1,2-a]pyridin-3-yl)-N-(2-(4-isopropylpiperazin-1-yl)ethyl)quinolin-3-amine] | 0.398 to 3.16 | 200 to 1260
Fc1ccc(Cl)cc1-c1n[nH]cc1-c1ccc2ncc(-c3[nH]nc4c3CNCC4)cc2n1 [Compound 1-115, 2-[3-(5-chloro-2-fluoro-phenyl)-1H-pyrazol-4-yl]-7-(4,5,6,7-tetrahydro-2H-pyrazolo[4,3-c]pyridin-3-yl)-1,5-naphthyridine] | 0.0398 to 0.316 | 25.1 to 158
CNC(=O)C1CN(c2cnc3ccc(-c4c[nH]nc4-c4cc(Cl)c(F)cc4F)nc3c2)CCN1 (racemic) [Compound 6-25, rac-(2R)-4-[6-[3-(5-chloro-2,4-difluoro-phenyl)-1H-pyrazol-4-yl]-1,5-naphthyridin-3-yl]-N-methyl-piperazine-2-carboxamide] | 0.0398 to 0.316 | 25.1 to 158
NC(=O)C1(N2CCN(c3cnc4ccc(-c5c[nH]nc5-c5cc(Cl)ccc5F)nc4c3)CC2)CCCC1 [Compound 1-32, 1-[4-[6-[3-(5-chloro-2-fluoro-phenyl)-1H-pyrazol-4-yl]-1,5-naphthyridin-3-yl]piperazin-1-yl]cyclopentanecarboxamide] | 0.0398 to 0.316 | 25.1 to 158
Fc1cc(F)c(-c2n[nH]cc2-c2ccc3ncc(-c4nc5n(n4)CCNC5)cc3n2)cc1Cl [Compound 6-46, 2-[3-(5-chloro-2,4-difluoro-phenyl)-1H-pyrazol-4-yl]-7-(5,6,7,8-tetrahydro-[1,2,4]triazolo[1,5-a]pyrazin-2-yl)-1,5-naphthyridine] | 0.0398 to 0.316 | 25.1 to 158
C[C@@H]1CN(CCNc2cnc3ccc(-c4nc[nH]c4-c4cccc(Cl)c4)nc3c2)C[C@H](C)N1 [Compound 29-2, 6-[5-(3-chlorophenyl)-1H-imidazol-4-yl]-N-[2-[rac-(3R,5S)-3,5-dimethylpiperazin-1-yl]ethyl]-1,5-naphthyridin-3-amine] | 0.398 to 3.16 | 25.1 to 158
NC1CCN(c2cnc3ccc(-c4c[nH]nc4-c4ccccc4F)nc3c2)C1 (stereo not drawn) [Compound 11-2, 1-(6-(3-(2-fluorophenyl)-1H-pyrazol-4-yl)-1,5-naphthyridin-3-yl)pyrrolidin-3-amine] | 0.398 to 3.16 | 25.1 to 158
NCCn1cc(-c2cnc3ccc(-c4c[nH]nc4-c4cc(Cl)c(F)cc4F)nc3c2)cn1 [Compound 6-41, 2-[4-[6-[3-(5-chloro-2,4-difluoro-phenyl)-1H-pyrazol-4-yl]-1,5-naphthyridin-3-yl]pyrazol-1-yl]ethanamine] | ≤ 0.0316 | 25.1 to 158
CC1(C)CCCN1CCNc1cnc2ccc(-c3c[nH]nc3-c3cc(Cl)ccc3F)nc2c1 [Compound 1-13, 6-[3-(5-chloro-2-fluoro-phenyl)-1H-pyrazol-4-yl]-N-[2-(2,2-dimethylpyrrolidin-1-yl)ethyl]-1,5-naphthyridin-3-amine] | 0.0398 to 0.316 | ≤ 20
Fc1cc(F)c(-c2n[nH]cc2-c2ccc3ncc(-c4nnn5c4NCC5)cc3n2)cc1Cl [Compound 6-58, 2-[3-(5-chloro-2,4-difluoro-phenyl)-1H-pyrazol-4-yl]-7-(5,6-dihydro-4H-imidazo[1,2-c]triazol-3-yl)-1,5-naphthyridine] | 0.0398 to 0.316 | 25.1 to 158
CC(C)N1CCN(c2cnc3ccc(-c4c[nH]nc4-c4cc(Cl)ccc4F)nc3c2)CC1 [Compound 1-43, 2-[3-(5-chloro-2-fluoro-phenyl)-1H-pyrazol-4-yl]-7-(4-isopropylpiperazin-1-yl)-1,5-naphthyridine] | 0.0398 to 0.316 | 25.1 to 158
Fc1ccccc1-c1n[nH]cc1-c1ccc2ncc(-c3cccnc3)cc2n1 [Compound 11-4, 2-[3-(2-fluorophenyl)-1H-pyrazol-4-yl]-7-(3-pyridyl)-1,5-naphthyridine] | 3.98 to 31.6 | 25.1 to 158
O=C(O)C1CN(CCNc2cnc3ccc(-c4c[nH]nc4-c4cc(Cl)ccc4F)nc3c2)CCN1 (stereo not drawn) [Compound 1-133, 4-[2-[[6-[3-(5-chloro-2-fluoro-phenyl)-1H-pyrazol-4-yl]-1,5-naphthyridin-3-yl]amino]ethyl]piperazine-2-carboxylic acid] | 0.0398 to 0.316 | 200 to 1260
CC(C)N1CC2CN(c3cnc4ccc(-c5c[nH]nc5-c5cc(Cl)ccc5F)nc4c3)C2C1 (stereo not drawn) [Compound 1-73, 2-[3-(5-chloro-2-fluoro-phenyl)-1H-pyrazol-4-yl]-7-(3-isopropyl-3,6-diazabicyclo[3.2.0]heptan-6-yl)-1,5-naphthyridine] | 3.98 to 31.6 | 25.1 to 158
Fc1ccc(Cl)cc1-c1nc2ccccn2c1-c1ccc2ncc(N3CCCNCC3)cc2c1 [Compound 19-8, 6-[2-(5-chloro-2-fluoro-phenyl)imidazo[1,2-a]pyridin-3-yl]-3-(1,4-diazepan-1-yl)quinoline] | 0.398 to 3.16 | 200 to 1260
CNCCn1cc(-c2cnc3ccc(-c4c(-c5cc(Cl)ccc5F)[nH]c5cccnc45)cc3c2)cn1 [Compound 21-1, 2-(4-(6-(2-(5-chloro-2-fluorophenyl)-1H-pyrrolo[3,2-b]pyridin-3-yl)quinolin-3-yl)-1H-pyrazol-1-yl)-N-methylethan-1-amine] | 0.398 to 3.16 | 200 to 1260
COC(=O)[C@H]1CN(c2cnc3ccc(-c4c[nH]nc4-c4cc(Cl)ccc4F)nc3c2)CCN1 [Compound 1-62, methyl (2R)-4-[6-[3-(5-chloro-2-fluoro-phenyl)-1H-pyrazol-4-yl]-1,5-naphthyridin-3-yl]piperazine-2-carboxylate] | 0.398 to 3.16 | 25.1 to 158
Fc1ccc(Cl)cc1-c1n[nH]cc1-c1ccc2ncc(-c3nnn4c3NCCC4)cc2n1 [Compound 1-118, 2-[3-(5-chloro-2-fluoro-phenyl)-1H-pyrazol-4-yl]-7-(4,5,6,7-tetrahydrotriazolo[1,5-a]pyrimidin-3-yl)-1,5-naphthyridine] | 0.0398 to 0.316 | ≤ 20
Fc1ccc(Cl)cc1-c1n[nH]cc1-c1ccc2ncc(NC3CCCNC3)cc2n1 (stereo not drawn) [Compound 1-25, 6-[3-(5-chloro-2-fluoro-phenyl)-1H-pyrazol-4-yl]-N-(3-piperidyl)-1,5-naphthyridin-3-amine] | 0.398 to 3.16 | 25.1 to 158
CNCCn1cc(-c2cnc3ccc(-c4c(-c5cc(Cl)c(F)cc5F)[nH]c5cccnc45)nc3c2)cn1 [Compound 26-1, 2-[4-[6-[2-(5-chloro-2,4-difluoro-phenyl)-1H-pyrrolo[3,2-b]pyridin-3-yl]-1,5-naphthyridin-3-yl]pyrazol-1-yl]-N-methyl-ethanamine] | 0.0398 to 0.316 | 200 to 1260
CC(C)N1CCN(c2cnc3ccc(-c4c[nH]nc4-c4ccccc4F)nc3c2)CC1 [Compound 11-3, 2-[3-(2-fluorophenyl)-1H-pyrazol-4-yl]-7-(4-isopropylpiperazin-1-yl)-1,5-naphthyridine] | 3.98 to 31.6 | 25.1 to 158
Fc1ccc(-c2[nH]cnc2-c2ccc3ncc(NCCN4CCNCC4)cc3n2)cc1F [Compound 9-1, 6-(5-(3,4-difluorophenyl)-1H-imidazol-4-yl)-N-(2-(piperazin-1-yl)ethyl)-1,5-naphthyridin-3-amine] | 0.398 to 3.16 | 200 to 1260
COCc1cccc(-c2[nH]cnc2-c2ccc3ncc(NCCN4CCNCC4)cc3n2)c1 [Compound 15-1, 6-(5-(3-(methoxymethyl)phenyl)-1H-imidazol-4-yl)-N-(2-(piperazin-1-yl)ethyl)-1,5-naphthyridin-3-amine] | 3.98 to 31.6 | 200 to 1260
CN1CCN(C2CCN(c3cnc4ccc(-c5c[nH]nc5-c5cc(Cl)c(F)cc5F)nc4c3)CC2)CC1 [Compound 6-17, 2-[3-(5-chloro-2,4-difluoro-phenyl)-1H-pyrazol-4-yl]-7-[4-(4-methylpiperazin-1-yl)-1-piperidyl]-1,5-naphthyridine] | 0.0398 to 0.316 | 25.1 to 158
CNCCn1cc(-c2cnc3ccc(-c4c[nH]nc4-c4cc(Cl)ccc4F)nc3c2)nn1 [Compound 1-131, 2-[4-[6-[3-(5-chloro-2-fluoro-phenyl)-1H-pyrazol-4-yl]-1,5-naphthyridin-3-yl]triazol-1-yl]-N-methyl-ethanamine] | 0.0398 to 0.316 | ≤ 20
COC(=O)C1CN(CCNc2cnc3ccc(-c4c[nH]nc4-c4cc(Cl)ccc4F)nc3c2)CCN1 (stereo not drawn) [Compound 1-22, methyl 4-[2-[[6-[3-(5-chloro-2-fluoro-phenyl)-1H-pyrazol-4-yl]-1,5-naphthyridin-3-yl]amino]ethyl]piperazine-2-carboxylate] | 0.0398 to 0.316 | 25.1 to 158
